Measured values from US20260234165A1, “MACROCYCLIC COMPOUNDS, PREPARATION METHOD THEREFOR, AND USE THEREOF” (GENFLEET THERAPEUTICS (SHANGHAI) INC., priority 2004, published 2026).
Where two headings read alike, the source gives them in different places.

Legend:
[1] = tested on: p-ERK in NCI-H441 cells (KRAS G12V mutation); experiment: Cell p-ERK assay (HTRF) in NCI-H441 cells; type: cell-based, human; conditions: NCI-H441 cells, 3 h compound incubation, HTRF p-ERK T202/Y204, read-out: H441 p-ERK IC50
Summary of the method: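 Seed 10000 AsPC-1 or 20000 NCI-H441 cells/well, overnight 37 °C/5% CO2. Cpd 3.16-fold series, 0.1% DMSO final, 3 h. Lyse 30 min, HTRF p-ERK (T202/Y204) Ab 4 h. IC50: 4-parameter fit of IR% normalised to DMSO and blank.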

[2] = tested on: p-ERK in AsPC-1 cells (KRAS G12D mutation); experiment: Cell p-ERK assay (HTRF) in AsPC-1 cells; type: cell-based, human; conditions: AsPC-1 cells, 3 h compound incubation, HTRF p-ERK T202/Y204, read-out: AsPC-1 p-ERK IC50
Procedure: AsPC-1 cells were purchased from ATCC, Cat. No. CRL-1682: NCI-H441 cells were purchased from ATCC, Cat. No. HTB-174: RPMI-1640 medium was purchased from Gibco, Cat. No. I1875-093: FBS was purchased from Gibco, Cat. No. 10099-141C: penicillin/streptomycin double-antibiotic solution (PS) was purchased from Gibco, Cat. No. 15140-122: trypsin (containing EDTA) was purchased from Gibco, Cat. No. 25200-072; DMSO was purchased from VWRAMRESCO, Cat. No. 0231-500ML; 96-well cell culture plates were purchased from Corning, Cat. No. 3599: white-bottomed, opaque 96-well plates were purchased from Cisbio, Cat. No. 66PL96025; Advance ERK phospho-T202/Y204 kit was purchased from Cisbio, Cat. No. 64AERPEH; cell counter was purchased from CHEMOMETEC, model: NC-200; microplate reader was purchased from PerkinElmer, model: EnVision.
AsPC-1, a human pancreatic cancer cell strain endogenously containing a KRAS^G12D mutation, was cultured in a complete medium containing RPMI-1640+10% FBS+1% PS. NCI-H441, a human non-small cell lung cancer cell strain endogenously containing a KRAS^G12V mutation, was cultured in a complete medium containing RPMI-1640+10% FBS+1% PS.
The cells were digested with trypsin (containing EDTA), collected in their corresponding complete media, and counted. The density of the cell suspensions was adjusted with their corresponding complete media, and 10000 AsPC-1 cells or 20000 NCI-H441 cells per well were seeded into a 96-well cell culture plate, with the volume of the medium in each well being 80 μL.
The cell culture plate was incubated in an incubator at 37° C. with 5% CO2 overnight. A series of 3.16-fold gradient dilutions of a 1000- compound stock solution were prepared with DMSO, and then diluted 200-fold with the complete medium described above to give 5′ compound stock solutions. On the day after cell seeding, 20 μL of the 5× compound stock solution was added to each cell culture well. As a result, the final concentration of the compound in the cell culture well became 1×, and the DMSO content in the well was 0.1%. In addition to the compound-treated wells described above, cell-containing DMSO control wells were also set. A complete medium containing 0.5% DMSO was added at 20 μL/well. After the mixture was well mixed, the culture plate was incubated in the incubator at 37° C. with 5% CO2 for another 3 h. The medium was then removed from the culture wells, and 50 μL of cell lysis buffer (from Advance ERK phospho-T202,Y204 kit) was added to each well. The mixture was well mixed and incubated for 30 min. Then, 16 μL of the mixture was transferred to a white-bottomed, opaque 96-well assay plate, and separately, 16 μL of cell lysis buffer was added to additional wells (serving as blank wells) in the assay plate. After the transfer was completed, 4 μL of p-ERK HTRF antibody mixture (from Advance ERK phospho-T202/Y204 kit) was added to each well of the assay plate, followed by a 4-hour incubation. The HTRF signal values (RLU) were then measured using a microplate reader, and the inhibition rate of the compound against p-ERK levels was calculated as follows: IR (%)=(RLUDMSO−RLUcompound)/(RLUDMSO−RLUblank)×100%, where RLUDMSO is the average HTRF signal value from the DMSO control well samples, RLUblank is the average HTRF signal value from the blank well samples, and RLUcompound is the HTRF signal value from the compound-treated well samples. Using an XLfit software, the IR (%) values were plotted against the logarithm of the compound concentrations, and the dose-response curves were fitted using the four-parameter method to calculate the IC50 values.

IC50 [1]	IC50 [2]	IC50 ([1]; Homo sapiens, NCI-H441, 3 h)	IC50 ([2]; Homo sapiens, ASPC1, 3 h)	Structure (SMILES)
69.4 nM	35.3 nM			CCn1c(-c2cc(OCCN3CCS(=O)(=O)CC3)cnc2[C@H](C)OC)c2c3cc(ccc31)-c1csc(n1)C[C@H](NC(=O)[C@H]1[C@H](C)[C@@H]1C)C(=O)N1CCC[C@H](N1)C(=O)OCC(C)(C)C2 (atropisomer, axis not shown; (Sa)) [Compound Z470, (1r,2R,3S)—N-((6^3S,4S,Z)—(Sa)-1^2-(5-(2-(1,1-dioxidothiomorpholino)ethoxy)-2-((S)-1-methoxyethyl)pyridin-3-yl)-1^1-ethyl-10,10-dimethyl-5,7-dioxo-6^1,6^2,6^3,6^4,6^5,6^6-hexahydro-1^1H-8-oxa-2(4,2)-thiazola-1(5,3)-indola-6(1,3)-pyridazinacycloundecaphane-4-yl)-2,3-dimethylcyclopropane-1-carboxamide]
26.7 nM	32.6 nM			C=C1CCN2CCN(c3cnc([C@H](C)OC)c(-c4c5c6cc(ccc6n4CC)-c4csc(n4)C[C@H](NC(=O)[C@H]4[C@H](C)[C@@H]4C)C(=O)N4CCC[C@H](N4)C(=O)OCC(C)(C)C5)c3)C[C@H]2C1 (atropisomer, axis not shown; (Sa)) [Compound Z549, (1r,2R,3S)—N-((6^3S,4S,Z)-1^1-ethyl-(Sa)-1^2-(2-((S)-1-methoxyethyl)-5-((R)-8-methyleneoctahydro-2H-pyrido[1,2-a]pyrazin-2-yl)pyridin-3-yl)-10,10-dimethyl-5,7-dioxo-6^1,6^2,6^3,6^4,6^5,6^6-hexahydro-1′H-8-oxa-2(4,2)-thiazola-1(5,3)-indola-6(1,3)-pyridazinacycloundecaphane-4-yl)-2,3-dimethylcyclopropane-1-carboxamide]
		20.7 nM	33.5 nM	CCn1c(-c2cc(OCCN3CCOCC34CC4)cnc2[C@H](C)OC)c2c3cc(ccc31)-c1csc(n1)C[C@H](NC(=O)C1[C@@H](C)[C@H]1C)C(=O)N1CCC[C@H](N1)C(=O)OCC1(CC1)C2 (stereo partly drawn) [Compound Z385, (1r,2R,3S)—N-((3′S,4′S,Z)-2′-(5-(2-(7-oxa-4-azaspiro[2,5]octan-4-yl)ethoxy)-2-((S)-1-methoxyethyl)pyridin-3-yl)-1-ethyl-5′,7′-dioxospiro[cyclopropane-1,10′-8-oxa-2(4,2)-thiazola-1(5,3)-indola-6(1,3)-pyridazinacycloundecaphan]-4′-yl)-2,3-dimethylcyclopropane-1-carboxamide]
0.63 nM			1.22 nM	CCn1c(-c2cc(C#CC(=O)N3CCCOCC3)cnc2[C@H](C)OC)c2c3cc(ccc31)-c1csc(n1)C[C@H](NC(=O)[C@H]1[C@H](C)[C@@H]1C)C(=O)N1CCC[C@H](N1)C(=O)OCC(C)(C)C2 [Compound Z810A, (1r,2R,3S)—N-((6^3S,4S,Z)-1^2-ethyl-1^2-(5-(3-(1,4-oxazepan-4-yl)-3-oxoprop-1-yn-1-yl)-2-((S)-1-methoxyethyl)pyridin-3-yl)-10,10-dimethyl-5,7-dioxo-6^1,6^2,6^3,6^4,6^5,6^6hexahydro-1^1H-8-oxa-2(4,2)-thiazola-1(5,3)-indola-6(1,3)-pyridazinacycloundecaphane-4-yl)-2,3-dimethylcyclopropane-1-carboxamide]
		2.16 nM	3.57 nM	CCn1c(-c2cc(C#CCN3CCC3)cnc2[C@H](C)OC)c2c3cc(ccc31)-c1csc(n1)C[C@H](NC(=O)CC1CC1)C(=O)N1CCC[C@H](N1)C(=O)OCC(C)(C)C2 [Compound Z999, N-((6^3S,4S,Z)-1^2-(5-(3-(azetidin-1-yl)prop-1-yn-1-yl)-2-((S)-1-methoxyethyl)pyridin-3-yl)-1^1-ethyl-10,10-dimethyl-5,7-dioxo-6^1,6^2,6^3,6^4,6^5,6^6-hexahydro-1^1H-8-oxa-2(4,2)-thiazola-1(5,3)-indola-6(1,3)-pyridazinacycloundecaphane-4-yl)-2-cyclopropylacetamide]
